# Reference: patent US9540380B2, “Imidazotriazinone compounds” (Ironwood Pharmaceuticals, Inc., priority 2010, dated 2017)
# Tests used:
# PDE9A2 = molecular target: T1, PDE9A2 (Homo sapiens, UniProt O76083); experiment: Phosphodiesterase Enzyme Screening Assay, PDE9A2 (Caliper LabChip mobility-shift); assay type: biochemical; conditions: 10 concentrations, 4.0 μM cGMP substrate, 1 hour at R.T.; read-out: Band (PDE9A2 IC50)
# T1 construct: purchased Reaction Biology Corporation, Malvern, Pa
# Text: (§1) Compounds of the invention were screened against PDE1A, PDE1B, PDE2A, PDE3A, PDE3B, PDE4A1A, PDE4B1, PDE4D3, PDE5A1, PDE6C, PDE7A, PDE8A1, PDE9A2, PDE10A2 AND PDE11A isoforms of the phosphodiesterase enzyme to determine activity and overall selectivity through comparative analysis. The assay generally consists of testing the compounds of the invention at 10 concentrations. Where 8-methoxy-IBMX and Zaprinast were used as reference inhibitors.
# (§2) The phosphodiesterase enzyme isoforms were obtained from a commercial retailer (Reaction Biology Corporation, Malvern, Pa.) for use in the instant screening assay.
# (§3) The analysis was completed using the Caliper LabChip 3000 and a 12-sipper LabChip. LabChip assays are separations-based, meaning that the product and substrate are electrophoretically separated, thereby minimizing interferences and yielding the highest data quality available on any screening platform. Z′ factors for both the EZ Reader and LC3000 enzymatic assays are routinely in the 0.8 to 0.9 range. High Z′ values, few false positives, few false negatives and analytical quality reproducibility are the reasons cited for the increasing reliance on the LabChip assays.
# (§4) The off-chip incubation mobility-shift phosphodiesterase assay uses a microfluidic chip to measure the conversion of a fluorescent cyclic AMP substrate to a 5′-AMP product, or a cyclic GMP substrate to a 5′-GMP product. The reaction mixture, from a microtiter plate well, is introduced through a capillary sipper onto the chip, where the fluorescent substrate and product are separated by electrophoresis and detected via laser-induced fluorescence. […] The precision of microfluidics allows researchers to detect subtle interactions between drug candidates and therapeutic targets. The technology is able to detect both strong and weak inhibitors with high accuracy, and routinely identifies drug candidates that conventional techniques miss.
# (§5) Reactions were carried out in 100 mM HEPES (pH 7.5), 5 mM MgCl2, 1 mM DTT, 0.003% Brij, 4.0 μM cGMP substrate. The reaction was started by addition of cGMP or cAMP and incubated for 1 hour at R.T. The reaction was terminated by the addition of stop buffer containing 100 mM HEPES (pH 7.5), 15 mM EDTA, 0.015% Brij-35, 5% DMSO. Cyclic AMP/GMP substrate and 5′-AMP/5′-GMP product were separated by charge using electrophoretic mobility shift. Product formed was compared to control wells to determine inhibition or enhancement of enzyme activity.
# (§6) One or more reference compounds, depending on phosphodiesterase isoform, selected from 8-methoxy-IBMX, Zaprinast, Trequinsin, Pentoxifyline, Rolipram, and Vinpocetine, Dipyridamole, and BRL-50481 were run alongside client samples to ensure data quality. The resulting IC50 is compared against the historical average and must be within 3-fold of this average.
# (§7) Data points were averages of quadruplicate wells and error bars represented the SEM for each point. IC50s were determined using GraphPad Prism Version 5.01 and the log (inhibitor) vs. response variable slope curve fit.
# PDE1A = molecular target: T2, PDE1A (Homo sapiens, UniProt P54750); experiment: Phosphodiesterase Enzyme Screening Assay, PDE1A (selectivity versus PDE9A2); assay type: biochemical; conditions: ratio of IC50 values; value greater than 1 indicates greater selectivity for PDE9A2
# T2 construct: purchased Reaction Biology Corporation, Malvern, Pa
# T2 sequence (P54750 whole entry): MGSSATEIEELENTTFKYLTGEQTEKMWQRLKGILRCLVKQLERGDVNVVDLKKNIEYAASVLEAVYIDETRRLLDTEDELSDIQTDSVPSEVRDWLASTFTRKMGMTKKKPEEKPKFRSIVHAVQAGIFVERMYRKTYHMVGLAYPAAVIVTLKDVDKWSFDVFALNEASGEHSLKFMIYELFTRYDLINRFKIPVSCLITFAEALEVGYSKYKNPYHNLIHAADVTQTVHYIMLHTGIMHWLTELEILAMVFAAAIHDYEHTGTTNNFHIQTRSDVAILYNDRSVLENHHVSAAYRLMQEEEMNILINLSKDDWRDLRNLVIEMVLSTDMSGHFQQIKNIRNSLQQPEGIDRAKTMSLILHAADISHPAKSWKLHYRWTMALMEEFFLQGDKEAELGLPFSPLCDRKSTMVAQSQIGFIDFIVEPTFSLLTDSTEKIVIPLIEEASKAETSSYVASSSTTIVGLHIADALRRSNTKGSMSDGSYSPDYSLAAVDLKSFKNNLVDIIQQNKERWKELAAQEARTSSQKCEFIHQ
# Text: as §1, §2, §3, §4, §5, §6, §7
# PDE1B = molecular target: T3, PDE1B (Homo sapiens, UniProt Q01064); experiment: Phosphodiesterase Enzyme Screening Assay, PDE1B (selectivity versus PDE9A2); assay type: biochemical; conditions: ratio of IC50 values; value greater than 1 indicates greater selectivity for PDE9A2
# T3 construct: purchased Reaction Biology Corporation, Malvern, Pa
# T3 sequence (Q01064 whole entry): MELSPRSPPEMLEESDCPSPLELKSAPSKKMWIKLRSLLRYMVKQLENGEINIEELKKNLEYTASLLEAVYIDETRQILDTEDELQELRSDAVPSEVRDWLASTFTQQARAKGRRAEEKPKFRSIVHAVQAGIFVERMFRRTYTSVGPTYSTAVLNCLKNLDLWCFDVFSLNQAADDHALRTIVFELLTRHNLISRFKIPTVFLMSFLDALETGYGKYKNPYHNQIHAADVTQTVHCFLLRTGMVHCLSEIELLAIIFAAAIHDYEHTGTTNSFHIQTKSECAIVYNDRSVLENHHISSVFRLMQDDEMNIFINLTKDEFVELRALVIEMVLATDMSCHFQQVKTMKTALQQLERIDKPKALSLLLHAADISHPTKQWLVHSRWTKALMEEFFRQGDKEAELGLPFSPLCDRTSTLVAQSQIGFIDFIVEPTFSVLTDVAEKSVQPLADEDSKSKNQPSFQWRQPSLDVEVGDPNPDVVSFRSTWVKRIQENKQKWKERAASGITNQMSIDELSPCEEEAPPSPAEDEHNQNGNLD
# Text: as §1, §2, §3, §4, §5, §6, §7
# PDE9 = PDE9 (Homo sapiens, UniProt O76083); conditions: PDE9 affinity for cGMP; cited from earlier work
# Sequence of PDE9 (O76083 whole entry): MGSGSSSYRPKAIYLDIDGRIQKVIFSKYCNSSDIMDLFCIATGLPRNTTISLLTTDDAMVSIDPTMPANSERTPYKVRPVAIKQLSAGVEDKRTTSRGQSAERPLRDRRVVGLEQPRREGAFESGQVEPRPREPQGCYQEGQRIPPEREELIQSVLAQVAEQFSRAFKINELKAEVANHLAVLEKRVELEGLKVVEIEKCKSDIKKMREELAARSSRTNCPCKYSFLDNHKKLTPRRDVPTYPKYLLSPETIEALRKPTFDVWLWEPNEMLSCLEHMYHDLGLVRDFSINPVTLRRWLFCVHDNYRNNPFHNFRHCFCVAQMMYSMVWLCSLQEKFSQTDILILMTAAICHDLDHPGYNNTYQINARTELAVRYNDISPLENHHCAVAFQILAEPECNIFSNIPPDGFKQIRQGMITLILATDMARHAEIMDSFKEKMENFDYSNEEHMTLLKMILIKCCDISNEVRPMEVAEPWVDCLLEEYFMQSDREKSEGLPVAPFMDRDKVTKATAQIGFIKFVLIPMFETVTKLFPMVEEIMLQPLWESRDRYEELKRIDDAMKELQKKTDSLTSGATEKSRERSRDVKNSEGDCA
# T1 sequence (O76083 1-533 isoform O76083-2): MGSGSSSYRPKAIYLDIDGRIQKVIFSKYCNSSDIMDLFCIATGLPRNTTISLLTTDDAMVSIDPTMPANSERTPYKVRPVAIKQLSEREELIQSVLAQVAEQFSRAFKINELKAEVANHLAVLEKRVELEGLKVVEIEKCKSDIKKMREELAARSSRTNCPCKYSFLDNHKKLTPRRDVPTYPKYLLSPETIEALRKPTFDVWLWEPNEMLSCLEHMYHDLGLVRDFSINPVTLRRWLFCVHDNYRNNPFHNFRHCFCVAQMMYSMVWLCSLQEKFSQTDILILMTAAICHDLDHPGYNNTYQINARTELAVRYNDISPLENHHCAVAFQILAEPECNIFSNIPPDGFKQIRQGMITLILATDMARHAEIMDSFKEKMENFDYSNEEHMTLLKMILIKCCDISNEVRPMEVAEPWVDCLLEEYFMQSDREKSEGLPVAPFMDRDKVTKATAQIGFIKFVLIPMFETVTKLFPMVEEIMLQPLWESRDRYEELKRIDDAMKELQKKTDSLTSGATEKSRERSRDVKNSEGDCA
Compound,IC50 (PDE9A2),PDE1A selectivity (versus PDE9A2) (PDE1A),PDE1B selectivity (versus PDE9A2) (PDE1B),Km (PDE9)
"C[C@@H]1CN(Cc2ccc(C#N)cc2)C[C@H]1c1nn2c(C3CCOCC3)ncc2c(=O)[nH]1 (single isomer, unassigned) [(−)-4-(((3,4-trans)-3-methyl-4-(4-oxo-7-(tetrahydro-2H-pyran-4-yl)-3,4-dihydroimidazo[5,1-f][1,2,4]triazin-2-yl)pyrrolidin-1-yl)methyl)benzonitrile]",< 1000 nM,640,1445,
"C[C@@H]1CN(Cc2cn3ncccc3n2)C[C@H]1c1nn2c(C3CCOCC3)ncc2c(=O)[nH]1 (single isomer, unassigned) [(+)-2-((3,4-trans)-1-(imidazo[1,2-b]pyridazin-2-ylmethyl)-4-] [(+)-2-((3,4-trans)-1-(imidazo[1,2-b]pyridazin-2-ylmethyl)-4-methylpyrrolidin-3-yl)-7-(tetrahydro-2H-pyran-4-yl)imidazo[5,1-f][1,2,4]triazin-4(3H)-one]",,1005,1413,
"C[C@@H]1CN(Cc2ccc3ccccc3n2)C[C@H]1c1nn2c(C3CCOCC3)ncc2c(=O)[nH]1 (single isomer, unassigned) [(+)-2-((3,4-trans)-4-methyl-1-(quinolin-2-ylmethyl)pyrrolidi] [(+)-2-((3,4-trans)-4-methyl-1-(quinolin-2-ylmethyl)pyrrolidin-3-yl)-7-(tetrahydro-2H-pyran-4-yl)imidazo[5,1-f][1,2,4]triazin-4(3H)-one]",,621,1400,
"CC1CN(Cc2ccccc2)CC1c1nn2c(C3CCCOC3)ncc2c(=O)[nH]1 (single isomer, unassigned) [2-((3,4-trans)-1-benzyl-4-methylpyrrolidin-3-yl)-7-(tetrahyd] [2-((3,4-trans)-1-benzyl-4-methylpyrrolidin-3-yl)-7-(tetrahydro-2H-pyran-3-yl)imidazo[5,1-f][1,2,4]triazin-4(3H)-one]",,28,38,
"C[C@@H]1CN(Cc2cccc(C#N)c2)C[C@H]1c1nn2c(C3CCOCC3)ncc2c(=O)[nH]1 (single isomer, unassigned) [(+)-3-(((3,4-trans)-3-methyl-4-(4-oxo-7-(tetrahydro-2H-pyran-4-yl)-3,4-dihydroimidazo[5,1-f][1,2,4]triazin-2-yl)pyrrolidin-1-yl)methyl)benzonitrile]",< 1000 nM,942,343,
"CC1CN(Cc2ncccn2)CC1c1nn2c(C34CC5CC(CC(C5)C3)C4)ncc2c(=O)[nH]1 (single isomer, unassigned; (+))",< 1000 nM,,,
"C[C@@H]1CN(Cc2ccccc2C#N)C[C@H]1c1nn2c(C3CCOCC3)ncc2c(=O)[nH]1 (single isomer, unassigned) [(+)-2-(((3,4-trans)-3-methyl-4-(4-oxo-7-(tetrahydro-2H-pyran-4-yl)-3,4-dihydroimidazo[5,1-f][1,2,4]triazin-2-yl)pyrrolidin-1-yl)methyl)benzonitrile]",< 1000 nM,241,220,
"Nc1nc2c(ncn2[C@@H]2O[C@@H]3COP(=O)(O)O[C@H]3[C@H]2O)c(=O)[nH]1 [cGMP, cyclic guanosine monophosphate]",,,,~170 nM
"Cc1ccc(Cl)cc1-c1ncc2c(=O)[nH]c([C@@H]3CNC[C@H]3C)nn12 (relative stereo) [(−)-7-(5-chloro-2-methylphenyl)-2-((3,4-trans)-4-methylpyrrolidin-3-yl)imidazo[5,1-f][1,2,4]triazin-4(3H)-one]",1000 to 10000 nM,,,

# Continued, in another order:
IC50 (PDE9A2),Compound,PDE1A selectivity (versus PDE9A2) (PDE1A),PDE1B selectivity (versus PDE9A2) (PDE1B),Km (PDE9)
< 1000 nM,"C[C@@H]1CN(Cc2cccc(F)c2)C[C@H]1c1nn2c(C3CCOCC3)ncc2c(=O)[nH]1 (single isomer, unassigned) [(−)-2-((3,4-trans)-1-(3-fluorobenzyl)-4-methylpyrrolidin-3-yl)-7-(tetrahydro-2H-pyran-4-yl)imidazo[5,1-f][1,2,4]triazin-4(3H)-one]",,,
< 1000 nM,"Cc1cc(F)ccc1-c1ncc2c(=O)[nH]c([C@@H]3CN(Cc4ccccc4)C[C@H]3C)nn12 (single isomer, unassigned) [(+)-2-((3,4-trans)-1-benzyl-4-methylpyrrolidin-3-yl)-7-(4-fluoro-2-methylphenyl)imidazo[5,1-f][1,2,4]triazin-4(3H)-one]",,,
> 10000 nM,"CC(=O)N1CCC(c2ncc3c(=O)[nH]c([C@@H]4CN(Cc5ncccn5)C[C@H]4C)nn23)CC1 (single isomer, unassigned) [(−)-7-(1-acetylpiperidin-4-yl)-2-((3,4-trans)-4-methyl-1-(pyrimidin-2-ylmethyl)pyrrolidin-3-yl)imidazo[5,1-f][1,2,4]triazin-4(3H)-one]",,,
< 1000 nM,"C[C@@H]1CN(Cc2cnccn2)C[C@H]1c1nn2c(C3CCOCC3)ncc2c(=O)[nH]1 (single isomer, unassigned) [(+)-2-((3,4-trans)-4-methyl-1-(pyrazin-2-ylmethyl)pyrrolidin-3-yl)-7-(tetrahydro-2H-pyran-4-yl)imidazo[5,1-f][1,2,4]triazin-4(3H)-one]",,,
< 1000 nM,"C[C@@H]1CN(Cc2ccccn2)C[C@H]1c1nn2c(C3CCOCC3)ncc2c(=O)[nH]1 (single isomer, unassigned) [(+)-2-((3,4-trans)-4-methyl-1-(pyridin-2-ylmethyl)pyrrolidin-3-yl)-7-(tetrahydro-2H-pyran-4-yl)imidazo[5,1-f][1,2,4]triazin-4(3H)-one]",,,
> 10000 nM,"Cc1cc(F)ccc1-c1ncc2c(=O)[nH]c([C@@H]3CN(Cc4ccccc4)C[C@H]3C)nn12 (single isomer, unassigned) [(−)-2-((3,4-trans)-1-benzyl-4-methylpyrrolidin-3-yl)-7-(4-fluoro-2-methylphenyl)imidazo[5,1-f][1,2,4]triazin-4(3H)-one]",,,
> 10000 nM,"C[C@@H]1CN(Cc2ccccc2)C[C@H]1c1nn2c(C(C)(C)O)ncc2c(=O)[nH]1 (single isomer, unassigned) [(−)-2-((3,4-trans)-1-benzyl-4-methylpyrrolidin-3-yl)-7-(2-hydroxypropan-2-yl)imidazo[5,1-f][1,2,4]triazin-4(3H)-one]",,,
